Assay results reported in US11566047B2, “Peptide or pharmaceutically acceptable salt thereof, or prodrug thereof” (TOKYO UNIVERSITY OF PHARMACY & LIFE SCIENCES, priority 2016, dated 2023).
Peptide text beside a SMILES is read from it. R111 = not defined here

Experiments:
[1] = tested on: calf muscles of mdx mice and C57BL/6 mice; experiment: Influence on calf muscles of mdx mice and C57BL/6 mice (cross-sectional areas of muscle fibers); assay type: in vivo
Description: Evaluation was performed by the following method in order to check the muscle mass increasing effect in vivo of nPDM-55/E31R prepared in Synthesis Example 36.
nPDM-55/E31R was dissolved in saline to become 0.75 mM. 40 μL of nPDM-55/E31R was intramuscularly administered into the calf muscles of both legs of anesthetized mdx mice and C57BL/6 mice aged 5 weeks (all mice were males, purchased from CLEA Japan, Inc.) (40 μL of saline was intramuscularly administered into the calf muscles of both legs of control mice). After 2 weeks, the same amount of nPDM-55/E31R was administered to the same site again. After further 4 weeks, the mice were subjected to necropsy, the calf muscles were excised from the both legs and transverse frozen sections (6 μm) were formed using cryostat. Regarding three sections stained with Hematoxylin-Eosin and randomly selected, cross-sectional areas of muscle fibers (200 fibers) were analyzed by a fluorescence microscope BZX700 (KEYENCE CORPORATION).

[2] = target: T1, myostatin (Homo sapiens, UniProt O14793); experiment: cell-based; details: HEK293, read-out: luciferase activity (relative; myostatin without test sample = 100%)
T1 sequence (O14793 267-375): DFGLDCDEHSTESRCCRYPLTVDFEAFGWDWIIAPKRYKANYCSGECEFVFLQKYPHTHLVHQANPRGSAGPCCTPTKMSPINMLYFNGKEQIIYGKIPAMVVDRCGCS
Description: Human embryo kidney cell HEK293 cells were cultured in a 5% (v/v) CO2 incubator set to 37° C. using DMEM (NACALAI TESQUE, INC.) including a 10% (v/v) fetal bovine serum (FBS) added with a 1% (v/v) non-essential amino acid (Wako Pure Chemical Corporation).
(2) In Vitro Reporter Assay
HEK293 cells were seeded on a D-Lys-corted 96-well transparent plate (Thermo Fisher Scientific Inc.) in an amount of 2.0×10^4 cells (100 μL DMEM+10% (v/v) FBS) per well and were cultured for 24 hours.
The cells were cultured at 37° C. for 24 hours, and after the cell culture solution was replaced with serum-free DMEM, the cells were cultured for 8 hours. Incidentally, pGL4.48 [luc2P/SBE/Hygro] includes firefly luciferase reporter gene luc2P under Smad binding region (SBE) control, and when a signaling pathway by the myostatin is activated, intracellular Smad forms a complex, and the complex is bonded to SBE to promote transcription of luc2P.
The peptide as a test sample was suspended as a stock solution using DMSO to become 10 mM and stored at −30° C. Before 1 hour from addition to the culture medium, the peptide and a myostatin (Merck Millipore Corp.) were suspended with serum-free DMEM and left to stand still at room temperature (25° C.) for 20 minutes. Subsequently, a peptide with an arbitrary final concentration (0.3 to […]) and 8 ng/mL of myostatin were added to the culture medium, and then culturing was performed for 4 hours. After culturing for 4 hours, the culture solution was removed by an aspirator and the cells were washed with 1×PBS. Thereafter, Passive Lysis buffer (Promega Corporation) was added in an amount of 50 μL per well to dissolve the cells. The dissolving solution was subjected to centrifugal separation at 4500 rpm for 6 minutes under the condition of 4° C. After 20 μL of supernatant subjected to centrifugal separation was transferred to a white 96-well plate (Costar), 50 μL of Luciferase Assay Reagent (Promega Corporation) was then added, emission was detected by Luminoskan Ascent (Thermo Fisher Scientific Inc.), and a firefly luciferase activity was measured. Further, after 50 μL of Stop & Glo Buffer (Promega Corporation) was added, emission was detected by Luminoskan Ascent, and a Renilla luciferase activity was measured to be regarded as an internal control.

[3] = tested on: mdx mice; experiment: Influence on serum creatine kinase level of mdx mice; assay type: in vivo; details: mdx male mice; 40 μL of 0.75 mM intramuscular into calf muscles of both legs on day 0 and day 14
Description: Evaluation was performed by the following method in order to check the effect of nPDM-55/E31R prepared in Synthesis Example 36 to a serum creatine kinase (CK) value in mdx mice. Incidentally, 3d prepared in Synthesis Example 75 was used as Comparative Example.
nPDM-55/E31R and 3d were dissolved in saline to become 0.75 mM. 40 μL of nPDM-55/E31R was intramuscularly administered into the calf muscles of both legs of anesthetized mdx mice aged 5 weeks (all mice were males, purchased from CLEA Japan, Inc.). After 2 weeks, the same amount of nPDM-55/E31R was administered to the same site again. Serum samples were collected immediately before administration of nPDM-55/E31R and 3d (day 0, day 14) and further also collected after 4 weeks (day 42). […] From those results, it was shown that nPDM-55/E31R has an effect of continually maintaining the CK level in blood to be low as compared to 3d.

[4] = tested on: anterior tibial muscles of mdx mice; experiment: Influence on anterior tibial muscles of Duchenne muscular dystrophy model mdx mice (muscle weight); assay type: in vivo; details: mdx male mice aged 5 weeks; 40 μL of 0.75 mM intramuscular, again after 2 weeks; necropsy after further 4 weeks; vs saline leg; average of three mice
Description: Regarding PDM-46 prepared in Synthesis Example 18, evaluation was performed by the following method in order to check the muscle mass increasing effect in vivo.
PDM-46 was dissolved in saline to become 0.75 mM. 40 μL of PDM-46 was intramuscularly administered into the left leg anterior tibial muscles of anesthetized mdx male mice aged 5 weeks (purchased from CLEA Japan, Inc.) (as a control, 40 μL of saline was intramuscularly administered into the right leg anterior tibial muscles). After 2 weeks, the same amount of PDM-46 was administered to the same site again. After further 4 weeks, the mice were subjected to necropsy, the anterior tibial muscles were excised from the both legs, and the weight thereof was measured.

Compound	cross-sectional areas of muscle fibers of calf muscles ([1]; mdx and C57BL/6 male mice, 40 μL of 0.75 mM intramuscular into both legs, again after 2 weeks, after further 4 weeks, vs saline mice)	nature of the obtained muscular hypertrophy (analysis images) ([1]; mdx and C57BL/6 mice, Hematoxylin-Eosin stained sections)	remaining activity at 0.3 µM [2] [%]	serum creatine kinase (CK) level on day 14 versus day 0 [3]	serum creatine kinase (CK) level on day 42 [3]	increase of muscle mass of anterior tibial muscles in terms of weight [4]
CC[C@H](C)[C@H](NC(=O)[C@H](CCC(N)=O)NC(=O)[C@@H](NC(=O)[C@H](CCCCN)NC(=O)[C@@H](NC(=O)[C@H](Cc1c[nH]c2ccccc12)NC(=O)[C@H](CCCNC(=N)N)NC(=O)[C@@H](NC(=O)[C@H](Cc1ccc(O)cc1)NC(=O)[C@@H](N)Cc1c[nH]c2ccccc12)[C@@H](C)CC)[C@@H](C)CC)[C@@H](C)CC)C(=O)N[C@@H](Cc1c[nH]c2ccccc12)C(=O)N[C@@H](CO)C(=O)N[C@@H](CCCCN)C(=O)N[C@@H](CC(C)C)C(=O)N[C@@H](CCCNC(=N)N)C(=O)N[C@@H](CC(C)C)C(N)=O [nPDM-55/E31R, WYIRWIKIQIWSKLRL-NH2] (H-WYIRWIKIQIWSKLRL-NH2)	increased	not inflammatory	≤ 60	clearly lower value	clearly lower value	
R^111-WYIESIKIQIISKLRL-NH2 (R111-WYIESIKIQIISKLRL-NH2; reading uncertain; also: printed as R^111-WYIESIKIQIISKLRL-NH2) [PDM-46, R^111 = group of Formula (4), drawing 8]						about 13%
